The source made the active and inactive calls. The calls are words filed in the database; no cut-off is given here.
Assays:
MCF7 = assay: Antiproliferative activity against human MCF7 cells assessed as inhibition of cell proliferation measured after 72 hrs by MTT assay; format: functional, cell-based; conditions: MCF7, 72 h
HepG2 = assay: Antiproliferative activity against human HepG2 cells assessed as inhibition of cell proliferation measured after 72 hrs by MTT assay; format: functional, cell-based; conditions: HepG2, 72 h
HGC-27 [1] = assay: Antiproliferative activity against human HGC-27 cells assessed as inhibition of cell proliferation at 0.39 to 50 uM measured upto 72 hrs by MTT assay; format: functional, cell-based; conditions: dose 0.39-50 µM, time hrs <=72
MGC-803 [2] = assay: Cell cycle arrest in human MGC-803 cells assessed as accumulation of cells at S phase at 5 uM measured after 24 hrs by Flowcytometry assay (reference value: 36.51%); format: functional
MGC-803 [3] = assay: Cell cycle arrest in human MGC-803 cells assessed as accumulation of cells at G2/M phase at 7.5 uM measured after 24 hrs by Flowcytometry assay (reference value: 13.71%); format: functional
HGC-27 [4] = assay: Inhibition of cell migration in human HGC-27 cells at 1.5 to 6 uM measured after 24 to 48 hrs by wound healing assay based inverted microscopic analysis; format: functional; conditions: dose 1.5-6 µM, time 24-48 hrs
HGC-27 [5] = assay: Inhibition of cell migration in human HGC-27 cells at 5 uM measured after 48 hrs by wound healing assay based inverted microscopic analysis; format: functional
MGC-803 [6] = assay: Induction of apoptosis in human MGC-803 cells assessed as viable cells at 2.5 uM measured after 24 hrs by AnnexinV/FITC staining based flow cytometry method (reference value: 94.8%); format: functional; conditions: read-out: Activity
MGC-803 [7] = assay: Induction of apoptosis in human MGC-803 cells assessed as early apoptotic cells at 5 uM measured after 24 hrs by AnnexinV/FITC staining based flow cytometry method (reference value: 1.3%); format: functional
MGC-803 [8] = assay: Induction of apoptosis in human MGC-803 cells assessed as early apoptotic cells at 7.5 uM measured after 24 hrs by AnnexinV/FITC staining based flow cytometry method (reference value: 1.3%); format: functional
MGC-803 [9] = assay: Induction of apoptosis in human MGC-803 cells assessed as necrotic cells at 7.5 uM measured after 24 hrs by AnnexinV/FITC staining based flow cytometry method (reference value: 1.9%); format: functional
MGC-803 [10] = assay: Induction of apoptosis in human MGC-803 cells assessed as viable cells at 2.5 uM measured after 48 hrs by AnnexinV/FITC staining based flow cytometry method (reference value: 97.4%); format: functional; conditions: read-out: Activity
MGC-803 [11] = assay: Induction of apoptosis in human MGC-803 cells assessed as early apoptotic cells at 2.5 uM measured after 48 hrs by AnnexinV/FITC staining based flow cytometry method (reference value: 1.5%); format: functional
MGC-803 [12] = assay: Induction of apoptosis in human MGC-803 cells assessed as necrotic cells at 2.5 uM measured after 48 hrs by AnnexinV/FITC staining based flow cytometry method (reference value: 0.2%); format: functional
MGC-803 [13] = assay: Induction of apoptosis in human MGC-803 cells assessed as viable cells at 5 uM measured after 48 hrs by AnnexinV/FITC staining based flow cytometry method (reference value: 97.4%); format: functional; conditions: read-out: Activity
MGC-803 [14] = assay: Induction of apoptosis in human MGC-803 cells assessed as viable cells at 7.5 uM measured after 48 hrs by AnnexinV/FITC staining based flow cytometry method (reference value: 97.4%); format: functional; conditions: read-out: Activity
MGC-803 [15] = assay: Induction of apoptosis in human MGC-803 cells assessed as necrotic cells at 7.5 uM measured after 48 hrs by AnnexinV/FITC staining based flow cytometry method (reference value: 0.2%); format: functional
HGC-27 [16] = assay: Induction of apoptosis in human HGC-27 cells assessed as viable cells at 3 uM measured after 24 hrs by AnnexinV/FITC staining based flow cytometry method (reference value: 95.7%); format: functional; conditions: read-out: Activity
HGC-27 [17] = assay: Induction of apoptosis in human HGC-27 cells assessed as late apoptotic cells at 6 uM measured after 24 hrs by AnnexinV/FITC staining based flow cytometry method (reference value: 2.4%); format: functional
HGC-27 [18] = assay: Induction of apoptosis in human HGC-27 cells assessed as necrotic cells at 6 uM measured after 24 hrs by AnnexinV/FITC staining based flow cytometry method (reference value: 1.2%); format: functional
HGC-27 [19] = assay: Induction of apoptosis in human HGC-27 cells assessed as viable cells at 3 uM measured after 48 hrs by AnnexinV/FITC staining based flow cytometry method (reference value: 93.18%); format: functional; conditions: read-out: Activity
HGC-27 [20] = assay: Induction of apoptosis in human HGC-27 cells assessed as early apoptotic cells at 3 uM measured after 48 hrs by AnnexinV/FITC staining based flow cytometry method (reference value: 5.8%); format: functional
HGC-27 [21] = assay: Induction of apoptosis in human HGC-27cells assessed as reduction of mitochondrial membrane potential at 6 uM measured after 24 hrs by JC-1 staining based Flowcytometry assay (reference value: 2.4%); format: functional; set-up: scale not given: the % may be the effect or the level left
MGC-803 [22] = assay: Induction of apoptosis in human MGC-803 cells assessed as upregulation of Bak at 2.5 to 7.5 uM measured after 24 hrs by Western blot assay; format: functional, cell-based; conditions: dose 2.5-7.5 µM
MGC-803 [23] = assay: Induction of apoptosis in human MGC-803 cells assessed as upregulation of Bid at 2.5 to 7.5 uM measured after 24 hrs by Western blot assay; format: functional, cell-based; conditions: dose 2.5-7.5 µM
HGC-27 [24] = assay: Induction of apoptosis in human HGC-27 cells assessed as upregulation of Bid at 3 to 9 uM measured after 24 hrs by Western blot assay; format: functional, cell-based; conditions: dose 3-9 µM
[25] = target: T1, NEDD8-activating enzyme E1 regulatory subunit (Homo sapiens) (UniProt Q13564); assay: Inhibition of NAE-mediated neddylation in human MGC-803 cells assessed as cullin5-Nedd8 adduct formation at 2.5 to 7.5 uM measured after 24 hrs by western blot assay; format: cell-based; conditions: dose 2.5-7.5 µM
T1 sequence (whole entry): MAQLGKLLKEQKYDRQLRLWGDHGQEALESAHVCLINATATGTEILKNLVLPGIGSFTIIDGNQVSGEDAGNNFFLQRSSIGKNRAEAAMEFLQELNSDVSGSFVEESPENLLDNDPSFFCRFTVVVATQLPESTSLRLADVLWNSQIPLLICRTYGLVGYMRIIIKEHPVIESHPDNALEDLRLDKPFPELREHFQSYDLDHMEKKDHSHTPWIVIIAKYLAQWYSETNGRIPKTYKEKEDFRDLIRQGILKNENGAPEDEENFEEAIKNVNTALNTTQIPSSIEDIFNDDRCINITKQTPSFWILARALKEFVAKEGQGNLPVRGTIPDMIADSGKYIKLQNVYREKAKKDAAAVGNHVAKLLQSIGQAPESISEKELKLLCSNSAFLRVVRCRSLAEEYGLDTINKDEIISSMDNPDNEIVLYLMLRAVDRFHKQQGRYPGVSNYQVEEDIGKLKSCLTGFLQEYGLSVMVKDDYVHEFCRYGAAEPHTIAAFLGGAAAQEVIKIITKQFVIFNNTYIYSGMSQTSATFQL

[26] = target: T1, NEDD8-activating enzyme E1 regulatory subunit (Homo sapiens); assay: Inhibition of NAE-mediated neddylation in human MGC-803 cells assessed as cullin4A-Nedd8 adduct formation at 2.5 to 7.5 uM measured after 24 hrs by western blot assay; format: cell-based; conditions: dose 2.5-7.5 µM
HGC-27 [27] = assay: Induction of apoptosis in human HGC-27 cells assessed as late apoptotic cells at 3 uM measured after 24 hrs by AnnexinV/FITC staining based flow cytometry method (reference value: 2.4%); format: functional

With CCCCCc1ccc(NC(=O)C2CCN(C/C=C/c3ccccc3)CC2)cc1 the IC50 (MCF7) was 3.74 µM, the IC50 (HepG2) was 2.89 µM and the Activity (HGC-27 [1]) was “Dose-Dependent Effect”. The Activity (MGC-803 [2]) was 33.81%, the Activity (MGC-803 [3]) was 25.94% and the inhibition (HGC-27 [4]) was “Dose-Dependent Effect”. It also gave an inhibition at 5 µM (HGC-27 [5]) of 60%, a viability at 2.5 µM (MGC-803 [6]) of 93.5% and an Activity (MGC-803 [7]) of 0.8%. The Activity (MGC-803 [8]) was 1.7%, the Activity (MGC-803 [9]) was 6.9% and the viability at 2.5 µM (MGC-803 [10]) was 50.6%. It also gave an Activity (MGC-803 [11]) of 3%, an Activity (MGC-803 [12]) of 2.9% and a viability at 5 µM (MGC-803 [13]) of 38.4%. The viability at 7.5 µM (MGC-803 [14]) was 0.4%, the Activity (MGC-803 [15]) was 0% and the viability at 3 µM (HGC-27 [16]) was 87.5%. The Activity (HGC-27 [17]) was 51.3%, the Activity (HGC-27 [18]) was 0.2% and the viability at 3 µM (HGC-27 [19]) was 64.4%. For the same molecule, the Activity (HGC-27 [20]) was 6.2%, the Activity (HGC-27 [21]) was 45.3% and the Activity (MGC-803 [22]) was “Dose-Dependent Effect”. For the same molecule, the Activity (MGC-803 [23]) was “Dose-Dependent Effect”, the Activity (HGC-27 [24]) was “Dose-Dependent Effect” and the inhibition [25] was “Active”. The inhibition [26] was “inactive” and the Activity (HGC-27 [27]) was 4.6%.
